Assay results reported in article PMC3568987 (ACS medicinal chemistry letters, 2012).

Key:
human hepatocytes = experiment: Hepatocyte intrinsic clearance; format: in vitro ADME
rat hepatocytes = experiment: Hepatocyte intrinsic clearance; format: in vitro ADME

- intrinsic clearance (human hepatocytes): 2.7 μL.min^−1 ·10^6 cells
- intrinsic clearance (rat hepatocytes): 4.9 μL.min^−1 ·10^6 cells
SMILES: CC#Cc1cncc(-c2cc(Cl)c([C@]3(C)CC(=O)N(C)C(=N)N3)s2)c1 [Compound 16]
